For 13 compounds, EC50, IC50 and inhibition results are on record in US10287267B2, “Isoquinolin-3-yl carboxamides and preparation and use thereof” (Samumed, LLC, priority 2016, dated 2019).

The test system of experiment [1] is Wnt pathway (Sp5-Luc reporter, TCF/LEF binding sites) in SW480 colon carcinoma cells. The experiment can be described thus: Screening assay for Wnt activity: Sp5-Luc reporter gene assay.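 For all read-outs here: firefly luciferase luminescence read in stably transduced SW480 cells carrying the Sp5 promoter reporter with eight TCF/LEF sites, compounds given in 0.1% DMSO final.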 The class given is cell-based, human. To be noted: Homo sapiens; for EC50: Sp5-Luc reporter, SW480 cells, 36 to 48 hours; for inhibition at 10 µM: SW480, read-out: percent inhibition at 10 μM.
Procedure: The screening assay for Wnt activity is described as follows.
Following incubation, 15 μl of BriteLite Plus luminescence reagent (Perkin Elmer) was added to each well of the 384-well assay plates. The plates were placed on an orbital shaker for 2 min and then luminescence was quantified using the Envision (Perkin Elmer) plate reader.

The target of experiment [2] is recombinant DYRK1A kinase (Homo sapiens (Human), UniProt Q13627). Description: DYRK1A kinase assay (Ser/Thr 18 peptide Z-lyte FRET).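 Note: Read-out is the coumarin to fluorescein emission ratio, referenced to unphosphorylated (0%) and phosphorylated (100%) Ser/Thr 18 peptide controls, values from dose-response curves by non-linear regression.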 The class given is biochemical. To be noted: 30 μM ATP, 1 h room temperature.
A further experiment concerns the target recombinant GSK3β kinase (Homo sapiens (Human), UniProt P49841). Description: GSK3β kinase assay (Ser/Thr 09 peptide Z-lyte FRET).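 Note: kinase activity read as coumarin to fluorescein emission ratio, 11-point threefold dilutions from 10 µM to 0.0003 µM in duplicate, unphosphorylated and phosphorylated peptide as 0% and 100% controls.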 The class given is biochemical. To be noted: 46 μM ATP, 1 h room temperature.
Experiment [3] has as its system Tau phosphorylation at Ser396 (pSer396). The experiment can be described thus: Tau phosphorylation assay (pSer396 ELISA / western blot) in SH-SY5Y cells.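 Note: EC50 for reduction of Tau pSer396 in lysed cells, measured by colorimetric ELISA or chemiluminescent western blot, both using the same pSer396 antibody.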 The note with it: Homo sapiens, read-out: pSer396 Tau EC50. The class given is cell-based, human. (In general: In an ELISA, binding on a coated surface is turned into a signal by an enzyme label.)
The subject of experiment [4] is secreted β-amyloid 40 (Aβ40) peptide. Description: Secreted β-amyloid 40 (Aβ40) peptide in APP overexpressing SH-SY5Y-APP cells. The class given is cell-based. To be noted: Homo sapiens, overnight (16-18 hours).
Procedure: Representative compounds were screened using the cell-based assay procedure for secreted β-amyloid 40 (Aβ40) peptide in an APP overexpressing cell line described below.
SH-SY5Y cells were infected with lentivirus to overexpress amyloid (A4) beta precursor protein (APP), hereafter referred to as the SH-SY5Y-APP cells.
SH-SY5Y cells were seeded onto 6-well plates at
The cell assay procedure start 18 h prior to treatment, as SH-SY5Y-APP cells were seeded onto 96-well plates at
At this time, designated wells were seeded with SH-SY5Y cells that were seeded and treated with puromycin at
Cells were exposed overnight (16-18 hours) in a 37° C. incubator before supernatant was harvested. […] The original plates with seeded cells were tested for cytotoxicity by measure of adenosine triphosphate (ATP) release by adding CellTiter-Glo® diluted 1:4 in distilled water (G7573, Promega) and transferring lysed cells to a completely black 96-well plate to be read with the Cytation3. Plates containing supernatant were spun down at 1200 g for 10 minutes to remove any cellular debris. Supernatant was then diluted 1:2 with a diluent from V-PLEX Aβ40 Peptide (6E10) Kit and directly tested for secreted Aβ40 peptide (K150SKE, Meso Scale Discovery).
Experiment [5] has as its system SW480 colon carcinoma cells. Description: Cell viability assay (CellTiter-Glo). The class given is cell-based, human. To be noted: Homo sapiens; for EC50: 96 h, SW480 cells, CellTiter-Glo, four days incubation; for inhibition at 10 µM: SW480, read-out: percent inhibition at 10 μM. Background: In ATP-based viability assays light output follows the ATP content of the culture.

The test system of experiment [6] is α-smooth muscle actin (αSMA) positive LL29 cells. The experiment can be described thus: Inhibition of fibrotic process: αSMA in TGF-β1 treated primary human fibroblasts from IPF patients.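 Note: controls were TGF-β1 stimulated wells with DMSO vehicle (positive) and cells given DMSO alone (negative), cultured in F12 medium with 1% fetal bovine serum.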 The note with it: Homo sapiens, Fibroblast, 96 h; Table 8; LL29 fibroblasts from IPF patients, TGF-β1 20 ng/mL, 4 days; dose-response 10 μM to 0.94 nM. The class given is cell-based.

The test system of another experiment is IL-6. Description: IL-6 inhibition in LPS-stimulated human peripheral blood mononuclear cells (HTRF).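 For all read-outs here: IL-6 detected by HTRF with an XL665- and Cryptate-labelled anti-IL-6 antibody pair, samples run in duplicate, EC50 obtained from a four-parameter Levenberg-Marquardt curve fit.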 To be noted: Homo sapiens, PBMC; for EC50: Table 9, huPBMCs, LPS 50 ng/mL, 22 hours, dose-response starting from 10 μM; for inhibition at 10 µM: read-out: percent value in parentheses beside EC50 >10 μM. It is filed as cell-based.
Where [7] appears, read: SH-SY5Y cells, overnight (16-18 h) exposure.

Structures are written as SMILES. Like-named read-outs stand apart in the source and are kept apart here.

Sequence of recombinant GSK3β kinase (P49841 whole entry): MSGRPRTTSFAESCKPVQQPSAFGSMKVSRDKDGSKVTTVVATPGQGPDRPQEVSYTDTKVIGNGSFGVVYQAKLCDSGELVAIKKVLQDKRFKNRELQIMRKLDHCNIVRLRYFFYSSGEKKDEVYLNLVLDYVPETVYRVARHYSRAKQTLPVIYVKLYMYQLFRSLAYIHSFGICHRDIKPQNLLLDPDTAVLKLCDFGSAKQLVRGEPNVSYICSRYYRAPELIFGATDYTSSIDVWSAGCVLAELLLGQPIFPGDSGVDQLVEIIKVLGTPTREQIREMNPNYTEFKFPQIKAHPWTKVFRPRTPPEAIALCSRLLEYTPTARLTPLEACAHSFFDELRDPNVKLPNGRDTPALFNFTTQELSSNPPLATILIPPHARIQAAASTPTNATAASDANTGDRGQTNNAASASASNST
Procedure for IL-6: After 22 hour incubation, a mixture of anti-IL6 XL665 and anti-IL-6 Cryptate diluted in reconstitution buffer (Catalog #62IL6PEC, Cisbio Inc., Bedford, Mass.) was added to each well. […] All samples were processed in duplicate. […] EC50 was determined using software generated by Dotmatics Limited (Windhill Bishops Stortford Herts, UK) using the Levenberg-Marquardt 4 parameter fitting procedure with finite different gradients.

Usually EC50 stands for the concentration at which the effect is half-maximal. A word on the IC50: it is the point on the concentration scale where inhibition reaches its midpoint. `Cn1cc(-c2ccc3cnc(NC(=O)C4CC4)cc3c2)cn1` [Compound 1, N-(6-(1-Methyl-1H-pyrazol-4-yl)isoquinolin-3-yl)cyclopropanecarboxamide]: the EC50 in experiment [1] stood at 0.65 µM; in experiment [2], 0.004 µM; at recombinant GSK3β kinase it was 0.008 µM; in experiment [3] (setting [7]) it was 0.149 µM; in experiment [5] it was 0.13 µM; in experiment [6] it was 0.135 µM. Besides, a half-maximal effect in the experiment on IL-6 (EC50) was put at 0.338 µM. Further, the IC50 in experiment [4] is 3.96 µM.
As to `Cn1cc(-c2ccc3cnc(NC(=O)C4CCNCC4)cc3c2)cn1` [Compound 72, N-(6-(1-methyl-1H-pyrazol-4-yl)isoquinolin-3-yl)piperidine-4-carboxamide], the EC50 in experiment [1] turned out to be 0.92 µM; in experiment [2] it was 0.0025 µM; on recombinant GSK3β kinase, 0.064 µM; in experiment [3] (setting [7]), 0.757 µM; in experiment [5], 0.911 µM; in experiment [6], 0.096 µM. In the experiment with IL-6, this compound registered an EC50 of 1.13 µM. Moreover, in experiment [4], 2.1 µM corresponded to half-maximal inhibition (IC50).
`Cn1cc(-c2ccc3cnc(NC(=O)C4CCN(C5CC5)CC4)cc3c2)cn1` [Compound 76, 1-Cyclopropyl-N-(6-(1-methyl-1H-pyrazol-4-yl)isoquinolin-3-yl)piperidine-4-carboxamide]: the EC50 came to 0.705 µM in experiment [1]; 0.0023 µM in experiment [2]; 0.031 µM on recombinant GSK3β kinase; 0.219 µM in experiment [3] (setting [7]); 1.56 µM in experiment [5]; 0.087 µM in experiment [6]. A half-maximal response in the experiment on IL-6 (EC50) required 1.13 µM. For the same compound, in experiment [4], the midpoint of inhibition, the IC50, lay at 1.2 µM.
For `Cn1cc(-c2ccc3cnc(NC(=O)C4CCN(CC(C)(C)C)CC4)cc3c2)cn1` [Compound 78, N-(6-(1-Methyl-1H-pyrazol-4-yl)isoquinolin-3-yl)-1-neopentylpiperidine-4-carboxamide], the EC50 in experiment [1] was 1 µM; in experiment [2] it was 0.0047 µM; on recombinant GSK3β kinase it was 0.063 µM; in experiment [3] (setting [7]), 0.265 µM; in experiment [5] it was 1.84 µM; in experiment [6] it was 0.108 µM. The compound further displayed an EC50 in the experiment on IL-6 of 2.94 µM. In experiment [4], the IC50 turned out to be 0.889 µM.
With `Cn1cc(-c2ccc3cnc(NC(=O)C4CCN(CCC(F)(F)F)CC4)cc3c2)cn1` [Compound 82, N-(6-(1-Methyl-1H-pyrazol-4-yl)isoquinolin-3-yl)-1-(3,3,3-trifluoropropyl) piperidine-4-carboxamide], the half-maximal effective concentration (EC50) worked out at 4.95 µM in experiment [1]; 0.0009 µM in experiment [2]; 0.022 µM on recombinant GSK3β kinase; 0.315 µM in experiment [3] (setting [7]); 2.71 µM in experiment [5]; 0.156 µM in experiment [6]. The compound also gave an EC50 in the experiment on IL-6 of 1.19 µM. This compound also registered an IC50 in experiment [4] of 5.1 µM.
As to `Cn1cc(-c2ccc3cnc(NC(=O)C4CCN(CC(F)F)CC4)cc3c2)cn1` [Compound 84, 1-(2,2-Difluoroethyl)-N-(6-(1-methyl-1H-pyrazol-4-yl)isoquinolin-3-yl) piperidine-4-carboxamide], the EC50 in experiment [1] was determined as 1.9 µM; in experiment [2], 0.0013 µM; on recombinant GSK3β kinase it was 0.02 µM; in experiment [3] (setting [7]), 0.454 µM; in experiment [5], 1.95 µM; in experiment [6] it was 0.148 µM. Moreover, the EC50 with IL-6 turned out to be 2.46 µM. In experiment [4], this compound showed an IC50 of 4.4 µM.
On to `Cn1cc(-c2ccc3cnc(NC(=O)C4CCN(CC(C)(C)F)CC4)cc3c2)cn1` [Compound 85, 1-(2-Fluoro-2-methylpropyl)-N-(6-(1-methyl-1H-pyrazol-4-yl)isoquinolin-3-yl)piperidine-4-carboxamide], for which the EC50 in experiment [1] came to 1.2 µM; in experiment [2], 0.0014 µM; on recombinant GSK3β kinase it was 0.029 µM; in experiment [3] (setting [7]) it was 0.392 µM; in experiment [5], 1.64 µM; in experiment [6], 0.097 µM. Moreover, in the experiment with IL-6, the EC50 was found to be 1.15 µM. The compound also registered a 50% inhibitory concentration (IC50) in experiment [4] of 1.3 µM.
Consider `Cn1cc(-c2ccc3cnc(NC(=O)[C@@H]4CCCNC4)cc3c2)cn1` [Compound 111, (R)—N-(6-(1-Methyl-1H-pyrazol-4-yl)isoquinolin-3-yl)piperidine-3-carboxamide], for which the EC50 in experiment [1] stood at 0.743 µM; in experiment [2], 0.0039 µM; at recombinant GSK3β kinase, 0.04 µM; in experiment [3] (setting [7]), 0.597 µM; in experiment [5] it was 0.526 µM; in experiment [6], 0.28 µM. In experiment [4], the IC50 was determined as 0.272 µM.
As for `Cn1cc(-c2ccc3cnc(NC(=O)CN4CCCCC4)cc3c2)cn1` [Compound 115, N-(6-(1-Methyl-1H-pyrazol-4-yl)isoquinolin-3-yl)-2-(piperidin-1-yl) acetamide], the EC50 in experiment [1] is 2.4 µM; in experiment [2], 0.0034 µM; at recombinant GSK3β kinase it was 0.03 µM; in experiment [3] (setting [7]), 0.311 µM; in experiment [5], 3.5 µM; in experiment [6], 0.605 µM. In the experiment on IL-6, this compound gave a concentration giving a half-maximal response (EC50) of 1.91 µM. Also, half-maximal inhibition in experiment [4] (IC50) required 0.956 µM.
As to `Cn1nncc1-c1ccc2cnc(NC(=O)C3CCN(CCC(F)(F)F)CC3)cc2c1` [Compound 248, N-(6-(1-Methyl-1H-1,2,3-triazol-5-yl)isoquinolin-3-yl)-1-(3,3,3-trifluoropropyl)piperidine-4-carboxamide], the EC50 is greater than 10 µM in experiment [1]; 0.0374 µM in experiment [2]; 0.266 µM on recombinant GSK3β kinase; 0.905 µM in experiment [3] (setting [7]); greater than 10 µM in experiment [5]; 7.92 µM in experiment [6]. The compound also returned an EC50 in the experiment on IL-6 of 9.73 µM. Besides, the IC50 in experiment [4] was greater than 10 µM.
For the compound `Cn1cncc1-c1ccc2cnc(NC(=O)C3CCC(F)(F)CC3)cc2c1` [Compound 263, 4,4-Difluoro-N-(6-(1-methyl-1H-imidazol-5-yl)isoquinolin-3-yl) cyclohexanecarboxamide], the EC50 in experiment [1] was 1.3 µM; in experiment [2], 0.0013 µM; on recombinant GSK3β kinase, 0.018 µM; in experiment [3] (setting [7]) it was 0.119 µM; in experiment [5] it was 1.29 µM; in experiment [6] it was 0.134 µM. In the experiment with IL-6, the EC50 stood at 0.451 µM. Also, the IC50 in experiment [4] stood at 5.3 µM.
In the case of `Cn1cc(-c2ccc3cnc(NC(=O)C45CCN(CC4)CC5)cc3c2)cn1` [Compound 1071, N-(6-(1-Methyl-1H-pyrazol-4-yl)isoquinolin-3-yl)quinuclidine-4-carboxamide], the inhibition at 10 µM is 43.2% in experiment [1], 26.2% in experiment [5] and 8.8% in the experiment with IL-6. The EC50 is greater than 10 µM in experiment [1]; 0.0165 µM in experiment [2]; 2.73 µM at recombinant GSK3β kinase; 6.9 µM in experiment [3] (SH-SY5Y); greater than 10 µM in experiment [5]; 0.712 µM in experiment [6]. Further, the EC50 in the experiment on IL-6 was greater than 10 µM.
Consider `CC(C)CN1CCC(F)(C(=O)Nc2cc3cc(-n4ccnn4)ccc3cn2)CC1` [Compound 1074, N-(6-(1H-1,2,3-triazol-1-yl)isoquinolin-3-yl)-4-fluoro-1-isobutylpiperidine-4-carboxamide], for which the inhibition at 10 µM in experiment [1] amounted to 19.7%; in experiment [5], 25%; in the experiment on IL-6, 5.6%. The EC50 in experiment [1] was greater than 10 µM; in experiment [2] it was 0.0069 µM; at recombinant GSK3β kinase, 0.278 µM; in experiment [3] (setting [7]) it was 1.3 µM; in experiment [5], greater than 10 µM; in experiment [6] it was greater than 10 µM. For the same compound, in the experiment on IL-6, the EC50 is greater than 10 µM.
